Values quoted from earlier work as cited in patent publication US9775828B2, “Pharmaceutical composition with increased solubility by using saccharin” (University-Industry Foundation, Yonsei University, priority 2014, dated 2017).

Settings: when administered to the oral cavity and the nasal cavity

CN(C)CCc1c[nH]c2ccc(C[C@H]3COC(=O)N3)cc12 [Zolmitriptan, (S)-4-{{3-[2-(dimethylaminoethyl)]-1H-indol-5-1}methyl}-2-oxazolidinone]
bioavailability: about 40%
